One assay deals with Zymoseptoria tritici. Kind of assay: Leaf Blotch of Wheat fungicidal activity (SEPTTR). The format is in vivo. The settings on record: Low Volume Cereal Activity at 121.5 g/Ha.
In another assay the test system is Puccinia triticina. Kind of assay: Wheat Brown Rust fungicidal activity (PUCCRT). The format is in vivo. Conditions: Low Volume Cereal Activity at 121.5 g/Ha.
The next assay relates to Phakopsora pachyrhizi. Kind of assay: Asian Soybean Rust fungicidal activity (PHAKPA). The settings on record: for pest or weed control at 25 ppm: Phakopsora pachyrhizi, in Glycine max.
The mark [1] stands for this setting: 24 h, 1 Day Protectant, read-out: SEPTTR 1DP (Wheat Leaf Blotch, 1 Day Protectant).
Setting [2] is: 72 h, 3 Day Curative, read-out: SEPTTR 3DC (Wheat Leaf Blotch, 3 Day Curative).
[3] abbreviates: 24 h, 1 Day Protectant, read-out: PUCCRT 1DP (Wheat Brown Rust, 1 Day Protectant).
Setting [4] is: 72 h, 3 Day Curative, read-out: PUCCRT 3DC (Wheat Brown Rust, 3 Day Curative).
Setting [5] is: 24 h, read-out: PHAKPA 1DP % Control rating, soybean, high volume, 25 ppm, 1 Day Protectant.
The mark [6] stands for this setting: 72 h, read-out: PHAKPA 3DC % Control rating, soybean, high volume, 25 ppm, 3 Day Curative.

Like-named read-outs stand apart in the source and are kept apart here. Some results are limits rather than exact numbers.

Turning to `COc1ccnc(C(=O)N[C@@H](C)C(=O)O[C@@H](C)[C@H](OCC(C)C)c2ccccc2)c1OC(C)=O` [Example 225], the pest or weed control at 121.5 g/ha in the assay on Zymoseptoria tritici (setting [1]) was less than 80%; with Zymoseptoria tritici (setting [2]), greater than 80%; with Puccinia triticina (setting [3]), greater than 80%; with Puccinia triticina (setting [4]), greater than 80%. Besides, the pest or weed control at 25 ppm was greater than 80% with Phakopsora pachyrhizi (setting [5]) and less than 80% in the assay with Phakopsora pachyrhizi (setting [6]).

As for `COc1ccnc(C(=O)N[C@@H](C)C(=O)O[C@@H](C)[C@H](Oc2ccccc2)c2ccc(F)cc2)c1OC(C)=O` [Example 242], the pest or weed control at 121.5 g/ha in the assay on Zymoseptoria tritici (setting [1]), in the assay on Zymoseptoria tritici (setting [2]), in the assay with Puccinia triticina (setting [3]) and in the assay with Puccinia triticina (setting [4]) was greater than 80% each time. Also, the pest or weed control at 25 ppm with Phakopsora pachyrhizi (setting [5]) was greater than 80%; with Phakopsora pachyrhizi (setting [6]) it was less than 80%.

In the case of `CCOc1cc(F)ccc1[C@@H](Oc1ccccc1)[C@H](C)OC(=O)[C@H](C)NC(=O)c1nccc(OC)c1OC(C)=O` [Example 265], the pest or weed control at 121.5 g/ha with Zymoseptoria tritici (setting [1]), with Zymoseptoria tritici (setting [2]), with Puccinia triticina (setting [3]) and with Puccinia triticina (setting [4]) was greater than 80% throughout. For the same molecule, the pest or weed control at 25 ppm with Phakopsora pachyrhizi (setting [5]) is less than 80%; in the assay with Phakopsora pachyrhizi (setting [6]), less than 0%.

In the case of `COc1ccnc(C(=O)N[C@@H](C)C(=O)O[C@@H](C)[C@H](OCC2CC2)c2cccc(-c3ccccc3)c2)c1OCOC(C)=O` [Example 220], the pest or weed control at 121.5 g/ha in the assay with Zymoseptoria tritici (setting [1]) is less than 80%; with Zymoseptoria tritici (setting [2]), greater than 80%; in the assay with Puccinia triticina (setting [3]) it was greater than 80%; in the assay on Puccinia triticina (setting [4]), greater than 80%. For the same molecule, the pest or weed control at 25 ppm in the assay on Phakopsora pachyrhizi (setting [5]) is greater than 80%; with Phakopsora pachyrhizi (setting [6]) it was less than 80%.

As to `COc1cc(F)ccc1[C@@H](OCC1CC1)[C@H](C)OC(=O)[C@H](C)NC(=O)c1nccc(OC)c1OC(C)=O` [Example 295], the pest or weed control at 121.5 g/ha in the assay on Zymoseptoria tritici (setting [1]) was greater than 80%; with Zymoseptoria tritici (setting [2]), greater than 80%; with Puccinia triticina (setting [3]), greater than 80%; in the assay on Puccinia triticina (setting [4]) it was less than 80%. The pest or weed control at 25 ppm is greater than 80% in the assay on Phakopsora pachyrhizi (setting [5]) and less than 80% in the assay on Phakopsora pachyrhizi (setting [6]).

For `COc1cc(F)ccc1[C@@H](Oc1ccccc1)[C@H](C)OC(=O)[C@H](C)NC(=O)c1nccc(OC)c1OC(C)=O` [Example 269], the pest or weed control at 121.5 g/ha with Zymoseptoria tritici (setting [1]), in the assay on Zymoseptoria tritici (setting [2]), in the assay on Puccinia triticina (setting [3]) and in the assay on Puccinia triticina (setting [4]) was greater than 80% throughout. In the assay with Phakopsora pachyrhizi (setting [5]), the pest or weed control at 25 ppm is greater than 80%. In addition, in the assay with Phakopsora pachyrhizi (soybean, high volume, 25 ppm, 3 Day Curative), the “PHAKPA 3DC % Control rating” value was “B (≦80)”.

As for `COc1cc(F)ccc1[C@@H](Oc1ccc(C)cc1)[C@H](C)OC(=O)[C@H](C)NC(=O)c1nccc(OC)c1OC(C)=O` [Example 271], the pest or weed control at 121.5 g/ha with Zymoseptoria tritici (setting [1]) is greater than 80%; in the assay with Zymoseptoria tritici (setting [2]), greater than 80%; in the assay with Puccinia triticina (setting [3]), greater than 80%; in the assay with Puccinia triticina (setting [4]), less than 0%. Moreover, the pest or weed control at 25 ppm in the assay on Phakopsora pachyrhizi (setting [5]) and in the assay on Phakopsora pachyrhizi (setting [6]) was less than 80% throughout.

Take `COc1cc(F)ccc1[C@@H](OC(=O)C1CC1)[C@H](C)OC(=O)[C@H](C)NC(=O)c1nccc(OC)c1OC(C)=O` [Example 297]: the pest or weed control at 121.5 g/ha was less than 0% in the assay on Zymoseptoria tritici (setting [1]), less than 80% in the assay on Zymoseptoria tritici (setting [2]), less than 0% with Puccinia triticina (setting [3]) and less than 0% in the assay with Puccinia triticina (setting [4]). Also, the pest or weed control at 25 ppm with Phakopsora pachyrhizi (setting [5]) and with Phakopsora pachyrhizi (setting [6]) was less than 80% each time.

For the molecule `COc1ccnc(C(=O)N[C@@H](C)C(=O)O[C@@H](C)[C@H](OCC2CC2)c2ccccc2)c1OC(C)=O` [Example 233], the pest or weed control at 121.5 g/ha with Zymoseptoria tritici (setting [1]), in the assay with Zymoseptoria tritici (setting [2]), in the assay with Puccinia triticina (setting [3]) and with Puccinia triticina (setting [4]) was greater than 80% throughout. Moreover, the figures for the pest or weed control at 25 ppm with Phakopsora pachyrhizi (setting [5]) and with Phakopsora pachyrhizi (setting [6]) were greater than 80% and less than 80%, respectively.

For the molecule `COc1ccnc(C(=O)N[C@@H](C)C(=O)O[C@@H](C)[C@H](Oc2ccccc2)c2ccccc2)c1OC(C)=O` [Example 184], the pest or weed control at 121.5 g/ha in the assay with Zymoseptoria tritici (setting [1]), in the assay with Zymoseptoria tritici (setting [2]), in the assay on Puccinia triticina (setting [3]) and in the assay with Puccinia triticina (setting [4]) was greater than 80% in each case. The pest or weed control at 25 ppm with Phakopsora pachyrhizi (setting [5]) and in the assay with Phakopsora pachyrhizi (setting [6]) was less than 80% throughout.

On to `CCCOc1cc(F)ccc1[C@@H](Oc1ccccc1)[C@H](C)OC(=O)[C@H](C)NC(=O)c1nccc(OC)c1OC(C)=O` [Example 268], for which the pest or weed control at 121.5 g/ha in the assay on Zymoseptoria tritici (setting [1]), with Zymoseptoria tritici (setting [2]), in the assay on Puccinia triticina (setting [3]) and in the assay on Puccinia triticina (setting [4]) was greater than 80% throughout. Also, the pest or weed control at 25 ppm with Phakopsora pachyrhizi (setting [5]) and in the assay with Phakopsora pachyrhizi (setting [6]) was less than 80% in each case.

On to `COc1cc(F)ccc1[C@@H](OC(=O)C(C)(C)C)[C@H](C)OC(=O)[C@H](C)NC(=O)c1nccc(OC)c1OC(C)=O` [Example 296], for which the pest or weed control at 121.5 g/ha in the assay on Zymoseptoria tritici (setting [1]) is greater than 80%; with Zymoseptoria tritici (setting [2]), greater than 80%; in the assay on Puccinia triticina (setting [3]) it was greater than 80%; in the assay with Puccinia triticina (setting [4]), less than 0%. Also, the pest or weed control at 25 ppm with Phakopsora pachyrhizi (setting [5]) and in the assay on Phakopsora pachyrhizi (setting [6]) was less than 80% throughout.

Consider `COc1ccnc(C(=O)N[C@@H](C)C(=O)O[C@@H](C)[C@H](Oc2ccccc2)c2ccc(F)cc2OC(C)=O)c1OC(C)=O` [Example 267], for which the pest or weed control at 121.5 g/ha is greater than 80% with Zymoseptoria tritici (setting [1]), less than 80% in the assay with Zymoseptoria tritici (setting [2]), less than 80% with Puccinia triticina (setting [3]) and less than 0% in the assay with Puccinia triticina (setting [4]). The pest or weed control at 25 ppm in the assay with Phakopsora pachyrhizi (setting [5]) and in the assay with Phakopsora pachyrhizi (setting [6]) was less than 80% each time.

Consider `COc1cc(F)ccc1[C@H](OC1CC1)[C@H](C)OC(=O)[C@H](C)NC(=O)c1nccc(OC)c1OC(C)=O` [Example 298], for which the pest or weed control at 121.5 g/ha is less than 80% in the assay with Zymoseptoria tritici (setting [1]), less than 0% in the assay with Zymoseptoria tritici (setting [2]), less than 80% with Puccinia triticina (setting [3]) and greater than 80% with Puccinia triticina (setting [4]). The results for the pest or weed control at 25 ppm in the assay on Phakopsora pachyrhizi (setting [5]) and with Phakopsora pachyrhizi (setting [6]) were greater than 80% and less than 80%, respectively.

Consider `COc1cc(F)ccc1[C@@H](Oc1ccc(C)cc1Cl)[C@H](C)OC(=O)[C@H](C)NC(=O)c1nccc(OC)c1OC(C)=O` [Example 266], for which the pest or weed control at 121.5 g/ha is greater than 80% in the assay on Zymoseptoria tritici (setting [1]), greater than 80% in the assay with Zymoseptoria tritici (setting [2]), greater than 80% in the assay with Puccinia triticina (setting [3]) and less than 80% with Puccinia triticina (setting [4]). Further, the figures for the pest or weed control at 25 ppm in the assay with Phakopsora pachyrhizi (setting [5]) and in the assay with Phakopsora pachyrhizi (setting [6]) were less than 80% and less than 0%, respectively.

With `COc1cc(F)ccc1[C@@H](OCC(F)F)[C@H](C)OC(=O)[C@H](C)NC(=O)c1nccc(OC)c1OC(C)=O` [Example 294], the pest or weed control at 121.5 g/ha in the assay on Zymoseptoria tritici (setting [1]) is greater than 80%; in the assay on Zymoseptoria tritici (setting [2]), greater than 80%; with Puccinia triticina (setting [3]) it was less than 80%; in the assay with Puccinia triticina (setting [4]), less than 80%. For the same molecule, the pest or weed control at 25 ppm with Phakopsora pachyrhizi (setting [5]) and in the assay with Phakopsora pachyrhizi (setting [6]) was less than 80% each time.

In the case of `C=CCOc1cc(F)ccc1[C@@H](Oc1ccccc1)[C@H](C)OC(=O)[C@H](C)NC(=O)c1nccc(OC)c1OC(C)=O` [Example 264], the pest or weed control at 121.5 g/ha in the assay on Zymoseptoria tritici (setting [1]) is greater than 80%; in the assay with Zymoseptoria tritici (setting [2]) it was greater than 80%; in the assay with Puccinia triticina (setting [3]), greater than 80%; in the assay with Puccinia triticina (setting [4]), less than 0%. In addition, the pest or weed control at 25 ppm in the assay with Phakopsora pachyrhizi (setting [5]) and in the assay with Phakopsora pachyrhizi (setting [6]) was less than 80% each time.

Turning to `COc1ccnc(C(=O)N[C@@H](C)C(=O)O[C@@H](C)[C@H](Oc2ccccc2Cl)c2ccccc2)c1OCOC(C)=O` [Example 204], the pest or weed control at 121.5 g/ha is less than 80% with Zymoseptoria tritici (setting [1]), greater than 80% in the assay on Zymoseptoria tritici (setting [2]), greater than 80% in the assay with Puccinia triticina (setting [3]) and greater than 80% with Puccinia triticina (setting [4]). For the same molecule, the pest or weed control at 25 ppm is greater than 80% in the assay on Phakopsora pachyrhizi (setting [5]) and less than 80% in the assay with Phakopsora pachyrhizi (setting [6]).

For the molecule `COc1cc(F)ccc1[C@@H](OC1CC1)[C@H](C)OC(=O)[C@H](C)NC(=O)c1nccc(OC)c1OC(C)=O` [Example 299], the pest or weed control at 121.5 g/ha with Zymoseptoria tritici (setting [1]) is greater than 80%; in the assay with Zymoseptoria tritici (setting [2]) it was greater than 80%; with Puccinia triticina (setting [3]), greater than 80%; in the assay on Puccinia triticina (setting [4]) it was less than 80%. For the same molecule, the figures for the pest or weed control at 25 ppm with Phakopsora pachyrhizi (setting [5]) and in the assay with Phakopsora pachyrhizi (setting [6]) were greater than 80% and less than 80%, respectively.

For `COc1ccnc(C(=O)N[C@@H](C)C(=O)O[C@@H](C)[C@H](Oc2ccccc2)c2cccc3ccccc23)c1OCOC(C)=O` [Example 262], the pest or weed control at 121.5 g/ha in the assay on Zymoseptoria tritici (setting [1]), with Zymoseptoria tritici (setting [2]), in the assay on Puccinia triticina (setting [3]) and in the assay with Puccinia triticina (setting [4]) was greater than 80% throughout. For the same molecule, the pest or weed control at 25 ppm in the assay with Phakopsora pachyrhizi (setting [5]) is greater than 80%; in the assay with Phakopsora pachyrhizi (setting [6]) it was less than 0%.

For `CCCO[C@H](c1ccccc1)[C@H](C)OC(=O)[C@H](C)NC(=O)c1nccc(OC)c1OC(C)=O` [Example 228], the pest or weed control at 121.5 g/ha was less than 80% in the assay with Zymoseptoria tritici (setting [1]), greater than 80% with Zymoseptoria tritici (setting [2]), greater than 80% in the assay with Puccinia triticina (setting [3]) and greater than 80% in the assay with Puccinia triticina (setting [4]). Besides, the pest or weed control at 25 ppm with Phakopsora pachyrhizi (setting [5]) is greater than 80%; with Phakopsora pachyrhizi (setting [6]), less than 0%.

These data come from patent publication US20180002288A1, “USE OF PICOLINAMIDES AS FUNGICIDES” (DOW AGROSCIENCES LLC, priority 2014, published 2018).
